These are literature values, as cited in US7173016B2, “Composition and method for treating graft-versus-host disease” (Mayne Pharma (USA) Inc., priority 2001, dated 2007).

The structures appear in SMILES notation.

For the series the following is noted: acid-catalyzed glycosidic cleavage.

For `OC[C@H]1O[C@@H](n2cnc3c2NC=NC[C@H]3O)C[C@@H]1O` [pentostatin, 2′-deoxycoformycin], the acid stability entry is “highly acid-labile”.
